Measurements as given in ChEMBL document CHEMBL1130580, “Synthesis and biological activity of new bradykinin pseudopeptide B1 receptor agonists containing alkylic spacers” (Bioorg Med Chem Lett, 1997).
pEC50, pKi: −log10 of the molar value. Numbered stars: 1 amine (or outer) side, 2 acyl side, 3 side chain; on linkers, the order of the positions; unused ones are H or OH. Square brackets hold non-standard residues; d marks the D form. Peptide text beside a SMILES is read from it. ξ: configuration not given here. Oic(3aξ,7aξ) = O=C(O)[C@@H]1CC2CCCCC2N1; X2 = O=C([C@H]1c2ccccc2CCN1[*:1])[*:2]; X1 = O=C(CCCCCCCCCCCCN[*:1])[*:2]

How the values were obtained:
B2 bradykinin receptor [1] = molecular target: T1, B2 bradykinin receptor (Cavia porcellus, UniProt O70526); assay: Compound was evaluated for inhibitory activity against [3H]BK in the classical guinea pig ileum B2 binding assay; format: tissue-based
T1 sequence (O70526 whole entry): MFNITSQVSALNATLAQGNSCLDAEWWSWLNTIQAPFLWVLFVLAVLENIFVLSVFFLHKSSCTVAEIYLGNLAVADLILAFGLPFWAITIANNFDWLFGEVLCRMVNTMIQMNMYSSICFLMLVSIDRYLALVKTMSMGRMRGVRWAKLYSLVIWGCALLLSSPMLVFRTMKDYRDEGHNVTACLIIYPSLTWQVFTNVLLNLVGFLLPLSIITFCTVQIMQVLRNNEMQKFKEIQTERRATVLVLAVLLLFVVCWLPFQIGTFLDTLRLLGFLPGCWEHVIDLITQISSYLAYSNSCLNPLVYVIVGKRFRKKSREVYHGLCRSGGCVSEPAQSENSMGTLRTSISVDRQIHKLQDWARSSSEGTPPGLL

B2 bradykinin receptor [2] = molecular target: T1, B2 bradykinin receptor; assay: Functional antagonism against BK-induced contractions in the classical guinea pig ileum B2 binding assay; format: tissue-based; conditions: read-out: pA2 (converted)
B1 bradykinin receptor = molecular target: T2, B1 bradykinin receptor (Rattus norvegicus, UniProt P97583); assay: Compound was evaluated for agonist activity against B1 receptor in rat ileum longitudinal smooth muscle; format: functional, tissue-based
T2 sequence (P97583 whole entry): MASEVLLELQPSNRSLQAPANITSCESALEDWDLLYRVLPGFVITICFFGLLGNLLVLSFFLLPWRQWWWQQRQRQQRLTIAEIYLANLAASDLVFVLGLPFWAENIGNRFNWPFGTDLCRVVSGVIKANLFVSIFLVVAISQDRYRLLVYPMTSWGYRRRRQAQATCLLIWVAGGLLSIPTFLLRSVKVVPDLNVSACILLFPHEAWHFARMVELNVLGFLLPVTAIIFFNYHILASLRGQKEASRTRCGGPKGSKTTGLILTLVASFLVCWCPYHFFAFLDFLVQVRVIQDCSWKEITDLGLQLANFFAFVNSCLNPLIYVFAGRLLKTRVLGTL

B2 bradykinin receptor [3] = molecular target: T3, B2 bradykinin receptor (Homo sapiens, UniProt P30411); assay: Compound was evaluated for inhibitory activity against [3H]BK in membrane preparations from a stable cell line that expresses the human B2 receptor
T3 sequence (P30411 whole entry): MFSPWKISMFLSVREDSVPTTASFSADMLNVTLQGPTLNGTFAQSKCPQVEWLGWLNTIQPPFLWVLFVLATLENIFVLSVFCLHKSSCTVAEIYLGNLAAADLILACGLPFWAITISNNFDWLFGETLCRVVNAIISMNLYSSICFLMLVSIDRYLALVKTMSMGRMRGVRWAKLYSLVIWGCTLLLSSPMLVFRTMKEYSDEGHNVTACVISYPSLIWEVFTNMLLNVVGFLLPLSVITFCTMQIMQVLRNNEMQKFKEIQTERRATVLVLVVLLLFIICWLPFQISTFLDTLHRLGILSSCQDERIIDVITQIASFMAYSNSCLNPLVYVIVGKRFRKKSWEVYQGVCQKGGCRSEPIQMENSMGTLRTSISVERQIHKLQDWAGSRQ

## N=C(N)NCCC[C@H](NC(=O)[C@H](N)CCCN=C(N)N)C(=O)NCCCCCCCCCCCC(=O)N[C@@H](CO)C(=O)N1CCc2ccccc2[C@@H]1C(=O)N1C2CCCCC2C[C@H]1C(=O)N[C@@H](CCCN=C(N)N)C(=O)O (stereo not given in full)
B2 bradykinin receptor [1]
  pKi: 6.44
B2 bradykinin receptor [2]
  Kb: 3160 nM

## NCCCC[C@H](N)C(=O)N[C@@H](CCCN=C(N)N)C(=O)NCCCCCCCCCCCCC(=O)N[C@@H](CO)C(=O)N1CCC[C@H]1C(=O)N[C@@H](Cc1ccccc1)C(=O)O (H-KR[X1]SPF-OH)
B1 bradykinin receptor
  pEC50: 6.01

## NCCCC[C@H](N)C(=O)N[C@@H](CCCN=C(N)N)C(=O)N1CCC[C@H]1C(=O)N1CCC[C@H]1C(=O)NCC(=O)N[C@@H](Cc1ccccc1)C(=O)N[C@@H](CO)C(=O)N1CCC[C@H]1C(=O)N[C@@H](Cc1ccccc1)C(=O)O
B1 bradykinin receptor
  pEC50: 7.07

## NC(N)=NCCC[C@H](NC(=O)[C@@H]1CC2CCCCC2N1C(=O)[C@H]1c2ccccc2CCN1C(=O)[C@H](CO)NC(=O)CCCCCCCCCCCCNC(=O)[C@H](CCCN=C(N)N)NC(=O)[C@@H](N)CCCN=C(N)N)C(=O)O (stereo not given in full) (H-RR[X1]S[X2][Oic(3aξ,7aξ)]R-OH)
B2 bradykinin receptor [3]
  pKi: 7.36
